Measurements from patent US20050169914A1, “Novel functions for decay accelerating factor (DAF) in inflammation” (priority 2003, published 2005).
Where no end group is shown, it is not given here. The star is where a group is joined. Biotin = O=C1N[C@H]2[C@H](CS[C@H]2CCCCC(=O)*)N1

Key:
[1] = tested on: PMN transmigration across epithelial monolayer; test: Kinetic PMN transmigration assay with DAF mimetic peptides; type: cell-based, human; conditions: for rank order of potency in kinetic PMN transmigration assay: compared to no peptide controls
Method: Transmigration assay. PMN transmigration assays were performed as previously described (Nicholson-Weller et al., 1994, J. Lab. Clin. Med. 123: 485-91). All epithelial experiments were performed in the physiologically-relevant basolateral-to-apical direction (i.e. inverted monolayers), unless otherwise indicated, and all HMVEC transmigration studies were performed in the apical-to-basolateral direction. Briefly, PMN (1×10^6) were added to the upper chambers of transwell inserts in which T84, KB or Caco2 cell monolayers, as indicated, were plated on the opposing side. A chemotactic gradient was established by adding n-formyl-methionyl-leucyl-phenylalanine (fMLP) to the lower chambers (1 μM for Caco2 and T84 epithelia and 10 nM for KB cells and HMVEC). PMN transmigration was carried out at 37° C. for 1 hour with KB and HMVEC monolayers and 2 hrs for T84 monolayers. Transmigrated PMN were quantified by assaying for the PMN azurophilic marker myeloperoxidase (MPO), as previously described (Lisanti et al., 1990, J. Memb. Biol. 113: 155-167). Briefly, transmigrated PMN were lysed by the addition of Triton X-100 to a final concentration 0.5%. The samples were acidified with citrate buffer (final concentration 100 mM; pH 4.2). An aliquot of sample (70 μl) was added to an equal volume of ABTS solution (1 mM ABTS (2.2′-Azino-bis(3-ethylbenzo-thiazoline-6-sulfonic acid), 0.03% H2O2, 100 mM sodium citrate buffer; pH 4.2) in a 96-well plate. The resulting color was quantitated on a plate reader at 405 nm. For kinetic transmigration and post-transmigration adhesion assays, monolayers were removed at the desired time point and placed in a new 24-well plate with HBSS and spun at 50×g for 5 min to dislodge PMN adherent to the monolayer (Liu et al., 2001, J. Biol. Chem. 276: 40156-66). PMN were quantified by MPO assay as stated above. Where indicated, polyclonal DAF antisera (a kind gift from Dr. B. Paul Morgan, University of Wales) or control polyclonal platelet-endothelial cell adhesion (PE-CAM, a kind gift from Dr. Joyce Bischoff, Children's Hospital and Harvard Medical School) antisera were used to assess transmigration.
Phage panning of OE-1. The OE-1 binding epitope was analyzed using phage display (Burritt et al., 1998, J. Biol. Chem. 273:24847-52). Briefly, sepharose-coupled OE-1 was incubated with 20-μL aliquots of the random 9-mer LL9 phage library (˜5×10^10 phage) in 1 mL HBSS containing 0.1% bovine serum albumin (phage buffer) for 2 hours at 4° C. or for 1 hour at 20° C. in a 1.5-ml microcentrifuge tube as described previously (Mazzucchelli et al., 1999, Blood 93: 1738-48). Antibody complexes were then washed five times with phage buffer and bound phage were eluted for 5 minutes in 2 mL of 0.1M glycine (pH 2.2) followed by addition of phage buffer containing 0.5% Tween 20 to the remaining cell pellet. After neutralization with Tris buffer pH 8.1, the titer of phage was determined in each fraction by plaque assay according to standard procedures. Phage elutes were then amplified in “starved” K91 E. coli on solid LB agar containing 75 μg/mL kanamycin, purified by precipitation with polyethylene glycol, and resuspended in 600 μL NaCl/HEPES buffer. An aliquot (20 μL) of purified phage was subsequently re-applied to a new aliquot of sepharose-coupled OE-1 for a total of three affinity purification and two amplification steps. Individual phage clones were then isolated, amplified, and the random peptide sequences were deduced after sequencing the unique nucleotide region of the pIII protein. As a control for OE-1-specific selection, parallel phage affinity purification steps were carried out in a 1.5-mL microcentrifuge tube in the absence of OE-1, and a sample of the recovered phage was analyzed by sequencing of the DNA insert. […]

[2] = tested on: OE-1 mAb binding to denatured protein; test: Peptide blocking of OE-1 binding, western blot of T84 epithelial lysates; conditions: concentration-dependent
Method: Immunoblotting experiments. Indicated cells were grown to confluency on 100 mm plastic Petri dishes. The monolayers were lysed for 10 min in 1 ml lysis buffer (150 mM NaCl, 25 mM Tris, pH 8.0, 5 mM EDTA, 2% n-octylglucoside, and 10% mammalian tissue protease inhibitor cocktail; Sigma, St. Louis, Mo.), scraped and collected into microfuge tubes. After spinning at 14,000×g to remove cell debris, the pellet was discarded. Proteins were solublized in non-reducing Laemmli sample buffer and heated to 100° C. for 5 minutes. Samples were resolved on a 10% polyacrylamide gel and transferred to nitrocellulose membranes. The membranes were blocked 1 hr at room temperature in PBS supplemented with 0.2% Tween-20 (PBS-T) and 4% BSA. […] The wash was repeated and proteins were detected by enhanced chemiluminescence.
Phage panning of OE-1. The OE-1 binding epitope was analyzed using phage display (Burritt et al., 1998, J. Biol. Chem. 273:24847-52). […] After neutralization with Tris buffer pH 8.1, the titer of phage was determined in each fraction by plaque assay according to standard procedures. […] As a control for OE-1-specific selection, parallel phage affinity purification steps were carried out in a 1.5-mL microcentrifuge tube in the absence of OE-1, and a sample of the recovered phage was analyzed by sequencing of the DNA insert. […]

[3] = tested on: OE-1 mAb binding to intact epithelial cell surface protein; test: Peptide blocking of OE-1 binding, cell surface ELISA on intact T84 cells; conditions: concentration-dependent
surface expressed DAF = test: DAF suppression in Caco2 cells (immunoprecipitation of surface biotinylated protein); type: cell-based, human; conditions: Caco2, relative to oligonucleotide controls, n=3
Method: DAF suppression studies. Caco2 cells were chosen for these experiments because they are more easily transfected than T84 cells. Confluent Caco2 monolayers were dislodged from T175 flasks with trypsin. Cells were washed once in serum-free DMEM. To 100 μl serum free media, 10 μl DAF siRNA ribonucleotide (20 μM each of sense 5′-[…]dTdT-3′ (SEQ ID NO: 31) and antisense 3′-dTd[…]-5′ (SEQ ID NO: 32), synthesized by Xeragon, Inc., Germantown, Md.) or 10 μl phosphorothioate derivatives of DAF antisense oligonucleotide (20 μM; 5′-[…]-3′ (SEQ ID NO: 33), synthesized by Oligo's Etc., Wilsonville, Oreg.) was added. In both cases, a control oligonucleotide (5′-ATG GAG GGC GCC GGC-3′, SEQ ID NO: 34) was used in parallel. To these solutions 10 μl Superfect transfection reagent (Qiagen, Valencia, Calif.) was added. The tubes were vortexed and incubated at room temperature for 10 min to allow transfection complexes formation. Following this incubation, 400 μl of serum containing media was added to the complexes, followed by 800 μl of cell suspension. […]
As a third approach, antisense oligonucleotides and siRNA technologies were utilized to diminish surface expressed DAF and examined the kinetics of PMN migration across such monolayers of epithelia. […] In panels B and C, the influence of siRNA (diamonds), antisense oligonucleotide (squares) on the kinetics of transmigration was assessed. […]

[4] = tested on: PMN transmigration across Caco2 monolayers; test: Kinetic PMN transmigration across DAF-depleted Caco2 monolayers; type: cell-based, human
Method: Transmigration assay. PMN transmigration assays were performed as previously described (Nicholson-Weller et al., 1994, J. Lab. Clin. Med. 123: 485-91). All epithelial experiments were performed in the physiologically-relevant basolateral-to-apical direction (i.e. inverted monolayers), unless otherwise indicated, and all HMVEC transmigration studies were performed in the apical-to-basolateral direction. Briefly, PMN (1×10^6) were added to the upper chambers of transwell inserts in which T84, KB or Caco2 cell monolayers, as indicated, were plated on the opposing side. […] Transmigrated PMN were quantified by assaying for the PMN azurophilic marker myeloperoxidase (MPO), as previously described (Lisanti et al., 1990, J. Memb. Biol. 113: 155-167). […] An aliquot of sample (70 μl) was added to an equal volume of ABTS solution (1 mM ABTS (2.2′-Azino-bis(3-ethylbenzo-thiazoline-6-sulfonic acid), 0.03% H2O2, 100 mM sodium citrate buffer; pH 4.2) in a 96-well plate. The resulting color was quantitated on a plate reader at 405 nm. For kinetic transmigration and post-transmigration adhesion assays, monolayers were removed at the desired time point and placed in a new 24-well plate with HBSS and spun at 50×g for 5 min to dislodge PMN adherent to the monolayer (Liu et al., 2001, J. Biol. Chem. 276: 40156-66). PMN were quantified by MPO assay as stated above. […]

CD55 mRNA expression = test: Hypoxia-induced CD55 mRNA expression in Caco2 cells with transcriptional inhibitor; type: cell-based, human; conditions: DRB 10 μM
Method: First, it was determined whether hypoxia-induced CD55 results from increased transcriptional activity. Caco2 cells were subjected to hypoxia in the presence or absence of the transcriptional inhibitor 5,6-dichlorobenzimidazole riboside (DRB, 10 μM) and assessed for changes in CD55 mRNA expression. […] Consequently, increases in CD55 by hypoxia required new mRNA synthesis.

surface of intact PMN = test: Binding of biotinylated peptide to intact PMN (rhodamine-streptavidin fluorescence); design: species or system human; conditions: peptide 10 μg/ml, 4° C., 1 hr
Method: In subsets of experiments, peptides were biotinylated (sulfo-NHS-Biotin, Pierce, Rockford, Ill.), purified by reversed phase HPLC, and tested for binding to PMN. Briefly, PMN (10^7 PMN in 1 ml) were incubated with biotinylated peptide DAF peptide or control peptide (each at 10 μg/ml) at 4° C. for 1 hr. PMN were washed three times in HBSS, and incubated with rhodamine-labeled steptavidin (Roche Diagnostics, Indianapolis, Ind.). Samples were aliquoted on a 96 well plate and fluorescence intensity (excitation, 550 nm; emission, 580 nm), expressed as relative fluorescence units (RFU) was measured on a fluorescent plate reader (Cytofluor™2300, Millipore Inc., Bedford, Mass.).

With EVEHWYASG [Peptide 4] the “effect on PMN transmigration relative to no peptide controls” value ([1]; 1 mM final concentration) was “appeared to enhance PMN transmigration”.
For EVEHWARSG [Peptide 3], the “rank order of potency in kinetic PMN transmigration assay” value (from here on “rank order of potency”) ([1]; 1 mM final concentration) was “Wild-type>Peptide 2=Peptide 1>Peptide 3”.
EVEHWYRSG was tested, and the “blocking of OE-1 binding to denatured protein” value [2] was “blocked OE-1 binding”, the “blocking of OE-1 binding to intact epithelial cell surface protein” value [3] was “blocked OE-1 binding” and the “rank order of potency” value ([1]; 1 mM final concentration) was “Wild-type>Peptide 2=Peptide 1>Peptide 3”. For the same compound, the “apical accumulation of PMN” value ([1]; PMN and epithelial pre-exposure to increasing peptide concentrations, p<0.025) was “increased apical accumulation of PMN” and the PMN transmigration ([1]; PMN and epithelial pre-exposure to increasing peptide concentrations, p<0.05) was “diminished PMN transmigration”.
In the case of “siRNA: DAF siRNA ribonucleotide, sense 5′-AAUUCCUGGCGAGAAGGACUCdTdT-3′, antisense 3′-dTdTUUAAGGACCGCUCUUCCUGAG-5′ (sense AAUUCCUGGCGAGAAGGACUCNN; antisense NNUUAAGGACCGCUCUUCCUGAG; chemistry not fully specified; one strand is listed 3' to 5')”, the “decrease in surface expressed DAF” value (surface expressed DAF) is reported as 63±12%, the “PMN transmigration across treated cells” value ([4]; Caco2, relative to mock or oligonucleotide control, p<0.025) is reported as “significantly diminished” and the “apical PMN in DAF-depleted epithelia” value ([4]; Caco2, p<0.05 by ANOVA) is reported as “significant increase over time”.
For `OC[C@H]1O[C@@H](n2cnc3cc(Cl)c(Cl)cc32)[C@H](O)[C@@H]1O` [DRB, 5,6-dichlorobenzimidazole riboside], the “decrease in CD55 inducibility by hypoxia” value (CD55 mRNA expression) was 87±7%.
For EVEHAYRSG [Peptide 2], the “rank order of potency” value ([1]; 1 mM final concentration) was “Wild-type>Peptide 2=Peptide 1>Peptide 3”.
With “SPLAQAVRSSSR [scrambled peptide, scrambled control peptide, reference compound]” the “blocking of OE-1 binding to intact epithelial cell surface protein” value [3] was “but not a scrambled peptide”.
For AVAHWYRSG [Peptide 1], the “rank order of potency” value ([1]; 1 mM final concentration) was “Wild-type>Peptide 2=Peptide 1>Peptide 3”.
In the case of Biotin-EVEHWYRSG, the “fluorescence intensity (binding to surface of intact PMN)” value (surface of intact PMN) is reported as 2,188±383 RFU.
